# Test system: Escherichia coli
# Assay: Compound was tested for its ability to inhibit DNA strand scission induced by resveratrol and Cu2+, at concentration 1 mM
# Type: functional
row,SMILES,inhibition at 1000 µM
1,Cc1ccoc1C,98.7%
2,O=S(=O)(O)c1cc(O)c(O)c(S(=O)(=O)O)c1 [TIRON],96.5%

# Test system: Escherichia coli
# Assay: Compound was tested for its ability to inhibit DNA strand scission induced by resveratrol and Cu2+, at concentration 50 mM
# Type: functional
row,SMILES,inhibition at 50000 µM
1,OC[C@@H](O)[C@@H](O)[C@H](O)[C@H](O)CO [MANNITOL],0.6%
2,CCO [ALCOHOL],1.9%
3,[N-]=[N+]=[N-] [SODIUM AZIDE],1.2%
4,NC(N)=S [THIOUREA],93.8%
5,[I-].[K+] [POTASSIUM IODIDE],61.5%
6,C[S+](C)[O-] [DIMETHYL SULFOXIDE],2.8%

# Reference: ChEMBL document CHEMBL1130669, “Resveratrol as a new type of DNA-cleaving agent” (1998)
